# Assay results published in patent US20080145313A1, “Compositions and Methods for the Treatment and Prevention of Neoplastic Disorders” (Genesis Research & Development Corporation Limited, priority 2006, published 2008).
# How the values were obtained:
# [1] = test system: HCT-116 p53 null cells; test: Growth inhibition of siRNA-transfected p53 null HCT-116 cells, SYBR Green I DNA content; assay type: cell-based
# Protocol: (§1) A549 cells (human lung cancer cell line; ATCC No. CCL-185), SK-MeI-5 cells (human melanoma cell line; ATCC No. HTB-70), MCF-7 cells (human adenocarcinoma cell line; ATCC No. HTB-22), HCT-116 cells (colorectal carcinoma; ATCC CCL-247) and HCT-116 p53 null cells (derived from ATCC No. CCL-247; Bunz et al., Science 282:1497-1501, 1998) were cultured in RPMI 1640 medium with 10% v/v heat-inactivated fetal calf serum (FCS). Cells were seeded at a density of 5×10^4 cells/cm^2 in multi-well tissue culture plates. Sequences of Stealth™ siRNA duplexes (Invitrogen) targeting human ribonucleotide reductase subunit 1 (SEQ ID NO: 22) and subunit 2 (SEQ ID NO; 38) are given in SEQ ID NO: 4830-4832 (DNA), and SEQ ID NO: 5136-5138 (RNA) for RRM1, and SEQ ID NO: 5306-5308 (DNA), and SEQ ID NO: 5303-5305 (RNA) for RRM2. siRNAs were transfected at different concentrations into cells using Lipofectamine™ RNAiMAX transfection reagent (Invitrogen). Non-specific siRNA (SEQ ID NO: 4804 and 4805 (DNA), and SEQ ID NO: 5301 and 5302 (RNA)) were used as controls. The cellular DNA content was measured using a SYBR Green I-based fluorometric assay at 24, 48, 72 and 96 hours after transfection (120 hours for the MCF-7 cells), as follows. At the indicated time points following reverse transfection, cells were harvested and frozen at −80° C. overnight. Cells were thawed and cell lysis buffer (phosphate-buffered saline (PBS) containing 1% Triton X-100, pH 7) and SYBR Green I (1:10^5 V/V; Invitrogen) was added to the wells and incubated overnight in the dark at 4° C.
# (§2) The following day, cell lysates were mixed thoroughly, and DNA fluorescence was measured with a Wallac Victor^2 plate reader (Turku, Finland) set at an excitation frequency of 485 nm and measuring emission at 535 nm.
# (§3) To determine the effect of the p53-status of cells on RRM1 and RRM2 knockdown, growth inhibition of wild type (wt) HCT-116 and p53 null HCT-116 cells by RRM1 and RRM2-targeted siRNA were determined. Cells were reverse transfected with 1.0 and 10 nM RRM1-3 (SEQ ID NO: 4832 (DNA), and SEQ ID NO: 5138 (RNA)), 1.0 and 10 nM RRM2-2 (SEQ ID NO: 5307 (DNA), and SEQ ID NO: 5304 (RNA)) or 10 nM control siRNA (SEQ ID NO: 4804 (DNA), and SEQ ID NO: 5301 (RNA)), and growth measured daily for up to 4 days post transfection.
# (§4) siRNA-mediated RNAi was also determined on a panel of different cell lines. A549, SK-MeI-5, wt HCT-116, HCT-116−/−p53 and MCF-7 cells were transfected with 10 nM siRNAs targeting YBX-1 and growth inhibition determined as described above. The YBX1 siRNAs are given in SEQ ID NO: 4981 to 4985 (DNA) and SEQ ID NO: 5276-5280 (RNA). A non-specific siRNA (SEQ ID NO: 4804 (DNA) and SEQ ID NO: 5301 (RNA)) was used as control. Growth inhibition by the siRNAs, given in Table 14, was standardized against the inhibition obtained with the control siRNA.
# [2] = test system: A549 cells; test: Growth inhibition of siRNA-transfected A549 cells, SYBR Green I DNA content; assay type: cell-based, human
# Method in brief: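 A549 cells reverse-transfected with 10 nM Stealth siRNAs via Lipofectamine RNAiMAX, seeded at 5×10^3 cells/cm^2 in RPMI 1640/10% FCS; non-specific siRNA control. DNA content read 96 h post-transfection by SYBR Green I fluorescence (ex 485/em 535 nm) after freeze-thaw and Triton X-100 lysis; mean of three wells.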
# [3] = test system: wt HCT-116 cells; test: Growth inhibition of siRNA-transfected wt HCT-116 cells, SYBR Green I DNA content; assay type: cell-based
# Protocol: as §1, §2, §3, §4
# HCT-116 and A549 cells were transfected with 0.1, 1.0 and 10 nM siRNA targeting TYMS and DHFR (SEQ ID NO: 4833 to 4838 (DNA), and SEQ ID NO: 5139-5144 (RNA)) using Lipofectamine™ RNAiMAX and incubated for 96 h, in either normal fetal calf serum or serum dialyzed to remove low molecular weight molecules (cut-off 10 kDa). Growth of cells was measured by measuring the total DNA content per well using the SYBR Green assay as described above, and values are given as the percentage of the averaged control values. […] Inhibition increased with increasing siRNA concentration, which was not observed with a non-specific control siRNA. […]
# [4] = test system: SK-Mel-5 cells; test: Growth inhibition of siRNA-transfected SK-Mel-5 cells, SYBR Green I DNA content; assay type: cell-based, human; settings: 1 nM p53 siRNA with 1 nM YBX1 siRNA SEQ ID NO: 4982
# Protocol: as §1, §2
# siRNA-mediated inhibition of cancer cell growth using siRNA targeting the YBX1 gene (SEQ ID NO: 92) was determined as follows. SK-MeI-5 cells were cultured in RPMI 1640 medium with 10% v/v heat-inactivated fetal calf serum. Cells were cultured as described above and reverse transfected with 0.1, 1.0, 10 and 40 nM (final concentration) of a pool of YBX1-targeting siRNAs (SEQ ID NO: 4982 and 4983 (DNA), and SEQ ID NO: 5277 and 5278 (RNA); referred to as 994 and 995 in FIG. 19) or a non-specific control (SEQ ID NO: 4804 (DNA), and SEQ ID NO: 5301 (RNA); referred to as Stealth 81 ctrl in FIG. 19), and cell growth determined after 120 h by measuring DNA fluorescence with a Wallac Victor^2 plate reader (Turku, Finland) set at an excitation frequency of 485 nm and measuring emission at 535 nm. Growth inhibition by the siRNA pool was standardized against the inhibition obtained with the control siRNAs.
# as §4
# [5] = test system: HCT-15 cells; test: Effect of MDR1 knockdown on drug resistance of HCT-15 cells; assay type: cell-based; settings: 10 nM siRNA; drug 72 h; compared with control siRNA
# Protocol: HCT-15 cells, which express high endogenous levels of MDR1, were reverse transfected with MDR1-specific (SEQ ID NO: 4976 (DNA), and SEQ ID NO: 5271 (RNA)) or control siRNAs (SEQ ID NO: 4804 (DNA), and SEQ ID NO: 5301 (RNA)) at a final concentration of 10 nM. Lipofectamine-siRNA complexes were made by adding 0.3 μl Lipofectamine RNAiMAX in 10 μl RPMI to an equivalent volume of medium containing siRNA, such that the final siRNA concentration would be 10 nM. This mixture was incubated at room temperature for 20 minutes to allow complexes to form, after which time 1,500 HCT-15 cells in 100 μl RPMI supplemented with 10% FCS were added to the wells. […] Drugs used were Doxorubicin (Sigma, St. Louis Mo.), Paclitaxel (Invitrogen) and Etoposide (Sigma, St. Louis Mo.). At the conclusion of the assay, medium was removed and growth inhibition determined as described above.
# [6] = test system: target transcript mRNA in A549 cells; test: Level of mRNA of target transcript in A549 cells by quantitative RT-PCR (Tables 12 and 13); assay type: cell-based, human; settings: 24 h post-transfection
# Method in brief: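 A549 cells were transfected with siRNA at 0.1, 1.0 and 10 nM. RNA was extracted 24 h later, reverse-transcribed with random primers, and target mRNA quantified by SYBR Green qRT-PCR. Values were normalised to housekeeping genes HPRT and Lamin.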
# [7] = test system: A549 tumors; test: Uptake of Alexa 555-labeled siRNA into A549 tumor cells in vivo after intratumoral injection; design: species or system mouse; settings: 25 μg i.t.
# Protocol: An Alexa 555-labeled control siRNA was used to determine the cellular uptake of siRNA in tumor tissues when given via intratumoral (i.t.) injection. A549 cells (6−8×10^6 cells) were s.c. inoculated into CD-1 nude mice. Once the A549 tumors reached a size of approximately 100 mm^3, mice were divided into two groups of four mice each. The Alexa 555-labeled Stealth™ siRNA (SEQ ID NO: 5111 (DNA), and SEQ ID NO: 5300 (RNA); Invitrogen Corp.) at a dose of 25 μg (in 50 μl) was injected into tumors of one group. 50 μl PBS was injected into tumors of a negative control group. Tumors were harvested at 6 and 24 h after injection and placed in a labeled cryomold (Tissue-TeK® Crymold®; ProSciTech, Thuringowa, Queensland, Australia) and covered with OCT tissue freezing medium (O.C.T. Compound, ProSciTech). The mold was gently submerged in liquid nitrogen for approximately one minute until OCT turned white and opaque. Tissues were stored at minus 80° C. until sections were cut. Tissues were allowed to reach −20° C. before processing in a Leica Cryostat (Leica Microsystems, Inc., Bannockburn Ill.) at 10 microns. Sections were picked up on Super Frost Plus slides (Esco, Biolab Scientific, New Zealand). After air-drying, sections were fixed in freshly prepared 2% paraformaldehyde solution for 2 minutes at room temperature and then rinsed in PBS to remove the fixative. The slides were mounted in Prolong Gold antifade reagent with DAPI (Molecular Probes®, Invitrogen Corp.), covered with cover slips and sealed to the slides with clear nail polish. The slides were stored at 4° C. in the dark. Fluorescence in the tumor samples was visualized using a Zeiss Axioskop Microscope (Carl Zeiss microimaging, Inc., Thornwood N.Y.) and Leica SP-2 Confocal Microscope (Leica Microsystems, Inc.). Autofluorescence in tumor tissues was very low in all filters examined (green, red and UV). […]
# [8] = 1 nM p53 siRNA with 1 nM YBX1 siRNA SEQ ID NO: 4982
substance,measurement,setting,value
"SEQ ID NO: 5110: p53-targeting Stealth siRNA (chain 1 GCCAAGTCTGTGACTTGCACGTACT; chain 2 GCCAAGUCUGUGACUUGCACGUACU; Stealth siRNA, chemical pattern not given here; one strand in two spellings) [reference compound]","effect of p53 siRNA co-transfection on YBX1 siRNA-mediated growth inhibition, HCT-116−/−p53",[1]; [8],only partial abrogation of growth inhibition
same,"effect of p53 siRNA co-transfection on YBX1 siRNA-mediated growth inhibition, A549",[2]; 5 nM p53 siRNA with 5 nM YBX1 siRNA SEQ ID NO: 4982,only partial abrogation of growth inhibition
same,"effect of p53 siRNA co-transfection on YBX1 siRNA-mediated growth inhibition, wt HCT-116",[3]; [8],only partial abrogation of growth inhibition
same,"effect of p53 siRNA co-transfection on YBX1 siRNA-mediated growth inhibition, SK-MeI-5",[4],completely ablated growth inhibition
SEQ ID NO: 4976: MDR1-specific siRNA (ABCB1) (chain 1 TTAGCTTCCAACCACGTGTAAATCC; chain 2 UUAGCUUCCAACCACGUGUAAAUCC; chemistry not given here; one strand in two spellings),"sensitivity to doxorubicin, HCT-15",[5],more sensitive
same,"sensitivity to etoposide, HCT-15",[5],more sensitive
same,"sensitivity to paclitaxel, HCT-15",[5],more sensitive
same,Growth Inhibition in A549 cells by 10 nM siRNA,"[2]; A549 cells, 10 nM siRNA, DNA content 96 hours after transfection, transporter gene targets",− (no growth inhibition)
same,"mRNA knockdown of transporter gene target transcript, 0.1 nM",[6]; 0.1 nM siRNA,− (<50% mRNA knockdown)
same,"mRNA knockdown of transporter gene target transcript, 1 nM",[6]; 1 nM siRNA,− (<50% mRNA knockdown)
"SEQ ID NO: 4832: Stealth siRNA targeting RRM1 (chain 1 ATTCAAAGATGTCTAAATGCCAAGG; chain 2 AUUCAAAGAUGUCUAAAUGCCAAGG; Stealth siRNA, chemical pattern not given here; one strand in two spellings)","growth inhibition, p53 null HCT-116","[1]; 1.0 and 10 nM siRNA, up to 4 days, compared with p53 wt",equally growth inhibitory
same,Growth Inhibition in A549 cells,"[2]; 10 nM siRNA, DNA content 96 hours after transfection",++ (inhibits by at least 75%)
same,"duration of growth inhibition post-transfection, A549","[2]; 1 and 10 nM siRNA, measured daily for up to ten days",at least 10 days
same,"growth inhibition, p53 wt HCT-116","[3]; 1.0 and 10 nM siRNA, up to 4 days, compared with p53 null",equally growth inhibitory
"Alexa 555-labeled siRNA: Alexa 555-labeled control Stealth siRNA (Invitrogen) (chain 1 CCGCAACAACGCCATCTATGAGAAA; chain 2 CCGCAACAACGCCAUCUAUGAGAAA; Alexa 555 label, position not given here, Stealth siRNA, chemistry not given here; one strand in two spellings)",cellular uptake of siRNA in tumor tissue (fluorescence),[7]; 6 h after injection,"red punctuations were seen in some tumor cells, indicative of uptake of siRNA"
same,intracellular localization of siRNA fluorescence,"[7]; 6 h after injection, overlay with DAPI",located in the cytoplasm around the periphery of the nuclei
same,cellular uptake of siRNA in tumor tissue (fluorescence),[7]; 24 h after injection,"also observed in the samples taken 24 h after injection, although in slightly lower number of cells"
